Source: patent US20240165123A1, “USE OF A COMPOUND CONTAINING A TRICYCLIC HETEROARYL GROUP” (CSPC Zhongqi Pharmaceutical Technology (Shijiazhuang) Co., …, priority 2021, published 2024)

Experiments:
Test in all cases: Kinase activity inhibition test (Mobility Shift Assay)
Type in all cases: biochemical
JAK2 = JAK2 (Homo sapiens, UniProt O60674); conditions: 6.5 μM ATP
Procedure: (§1) • 1. kinases: SYK, JAK1, JAK2, JAK3 and TYK2 • 2. test method
(§2) Protein kinase activity was determined by Mobility Shift Assay. Compound (I) was dissolved in DMSO and prepared into concentration gradients in 100% DMSO. By the dilution with the kinase buffer, 5 μL of Compound (I) (10% DMSO) was added to a 384-well plate at 5 folds of the final reaction concentration. 10 μL of 2.5-fold enzyme solution was added and the incubation was performed at room temperature for 10 min, followed by the addition of 10 μL of 2.5-fold substrate solution. The incubation was performed at 28° C. for 60 min and […] of stop solution was added to the 384-well reaction plate to terminate the reaction (100 mM HEPES, pH 7.5, 0.015% Brij-35, 0.2% Coating Reagent #3, 50 mM EDTA). The conversion data was copied from the Caliper EZ Reader, and converted into the inhibition data, % inhibition=(max-conversion)/(max-min)×100%, wherein, “min” is the conversion for the control sample well where the reaction was performed without adding the enzyme; and “max” is the conversion for the control well where DMSO was added. The curve was drawn with the compound concentration and the inhibition rate as the horizontal and vertical is coordinates, and the IC50 value was calculated by fitting with XLFit excel add-in version 5.4.0.8. Fitting equation:
(§3) Y=Bottom+(Top-Bottom)/(1+(IC50/X)^HillSlope).

JAK3 = molecular target: T1, JAK3 (Homo sapiens, UniProt P52333); conditions: 4.3 μM ATP
T1 sequence (P52333 1-1124): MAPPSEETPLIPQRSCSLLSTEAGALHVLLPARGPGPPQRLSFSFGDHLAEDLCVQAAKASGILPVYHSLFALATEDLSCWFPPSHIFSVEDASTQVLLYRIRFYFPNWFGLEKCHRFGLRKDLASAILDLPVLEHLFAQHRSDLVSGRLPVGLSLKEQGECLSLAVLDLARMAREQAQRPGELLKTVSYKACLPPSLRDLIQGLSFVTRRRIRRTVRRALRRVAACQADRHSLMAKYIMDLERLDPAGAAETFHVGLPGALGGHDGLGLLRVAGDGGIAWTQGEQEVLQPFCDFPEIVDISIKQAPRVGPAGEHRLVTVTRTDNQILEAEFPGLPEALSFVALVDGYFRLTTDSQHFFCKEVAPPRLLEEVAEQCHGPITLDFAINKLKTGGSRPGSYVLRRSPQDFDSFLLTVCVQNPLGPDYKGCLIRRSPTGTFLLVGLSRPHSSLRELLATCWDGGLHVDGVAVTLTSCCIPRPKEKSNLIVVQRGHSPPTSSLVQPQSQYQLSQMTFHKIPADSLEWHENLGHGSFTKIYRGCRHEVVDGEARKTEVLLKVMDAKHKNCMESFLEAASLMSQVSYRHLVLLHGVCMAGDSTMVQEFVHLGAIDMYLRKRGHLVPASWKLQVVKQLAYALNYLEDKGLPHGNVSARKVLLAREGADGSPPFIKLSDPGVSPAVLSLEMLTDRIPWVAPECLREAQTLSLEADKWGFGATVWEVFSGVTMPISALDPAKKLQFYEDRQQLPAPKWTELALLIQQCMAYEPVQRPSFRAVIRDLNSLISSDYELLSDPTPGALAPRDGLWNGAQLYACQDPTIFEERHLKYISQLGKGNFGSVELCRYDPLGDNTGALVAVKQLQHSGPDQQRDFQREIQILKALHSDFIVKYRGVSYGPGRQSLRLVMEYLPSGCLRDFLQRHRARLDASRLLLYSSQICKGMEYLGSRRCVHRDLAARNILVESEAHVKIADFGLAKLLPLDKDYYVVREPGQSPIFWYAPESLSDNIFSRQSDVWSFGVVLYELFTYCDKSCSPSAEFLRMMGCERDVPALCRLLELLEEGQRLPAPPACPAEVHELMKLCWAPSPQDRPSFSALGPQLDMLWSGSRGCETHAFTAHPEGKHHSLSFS
Procedure: as §1, §2, §3

TYK2 = TYK2 (Homo sapiens, UniProt P29597); conditions: 16 μM ATP
TYK2, sequence (P29597 whole entry, species assumed): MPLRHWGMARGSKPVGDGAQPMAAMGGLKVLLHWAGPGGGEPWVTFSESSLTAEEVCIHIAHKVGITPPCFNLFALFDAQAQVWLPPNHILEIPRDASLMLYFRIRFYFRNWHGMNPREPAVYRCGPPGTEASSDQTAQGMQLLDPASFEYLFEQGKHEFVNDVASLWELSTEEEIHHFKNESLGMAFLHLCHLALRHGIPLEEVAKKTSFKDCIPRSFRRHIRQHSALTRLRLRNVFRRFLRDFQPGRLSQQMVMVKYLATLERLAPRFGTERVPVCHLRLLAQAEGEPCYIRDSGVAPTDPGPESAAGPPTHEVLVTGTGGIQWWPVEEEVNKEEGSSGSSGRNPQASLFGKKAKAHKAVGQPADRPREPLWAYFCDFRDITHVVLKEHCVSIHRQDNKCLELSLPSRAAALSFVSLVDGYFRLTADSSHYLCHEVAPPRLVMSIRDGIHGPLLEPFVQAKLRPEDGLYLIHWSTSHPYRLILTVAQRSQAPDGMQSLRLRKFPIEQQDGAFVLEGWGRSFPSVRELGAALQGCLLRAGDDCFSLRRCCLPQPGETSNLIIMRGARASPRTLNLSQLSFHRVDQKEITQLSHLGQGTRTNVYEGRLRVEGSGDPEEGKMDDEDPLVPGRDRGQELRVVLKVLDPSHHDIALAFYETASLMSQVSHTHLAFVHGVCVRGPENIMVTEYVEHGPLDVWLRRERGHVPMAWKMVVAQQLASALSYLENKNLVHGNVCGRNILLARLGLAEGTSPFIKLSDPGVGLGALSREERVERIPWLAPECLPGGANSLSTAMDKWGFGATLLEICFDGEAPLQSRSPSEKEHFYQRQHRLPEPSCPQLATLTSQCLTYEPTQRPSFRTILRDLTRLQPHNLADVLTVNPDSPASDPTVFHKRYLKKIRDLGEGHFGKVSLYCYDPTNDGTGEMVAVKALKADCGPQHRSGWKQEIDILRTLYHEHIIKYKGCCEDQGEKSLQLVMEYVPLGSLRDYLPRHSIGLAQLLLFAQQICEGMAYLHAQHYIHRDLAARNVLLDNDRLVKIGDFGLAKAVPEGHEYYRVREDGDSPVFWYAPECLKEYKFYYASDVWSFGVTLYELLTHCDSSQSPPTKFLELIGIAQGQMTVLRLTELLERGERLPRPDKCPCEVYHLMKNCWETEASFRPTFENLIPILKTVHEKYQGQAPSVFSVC
Procedure: as §1, §2, §3

SYK = SYK (Homo sapiens, UniProt P43405); conditions: 2 μM ATP
Procedure: as §1, §2, §3

JAK1 = JAK1 (Homo sapiens, UniProt P23458); conditions: 66 μM ATP
JAK1, sequence (P23458 whole entry, species assumed): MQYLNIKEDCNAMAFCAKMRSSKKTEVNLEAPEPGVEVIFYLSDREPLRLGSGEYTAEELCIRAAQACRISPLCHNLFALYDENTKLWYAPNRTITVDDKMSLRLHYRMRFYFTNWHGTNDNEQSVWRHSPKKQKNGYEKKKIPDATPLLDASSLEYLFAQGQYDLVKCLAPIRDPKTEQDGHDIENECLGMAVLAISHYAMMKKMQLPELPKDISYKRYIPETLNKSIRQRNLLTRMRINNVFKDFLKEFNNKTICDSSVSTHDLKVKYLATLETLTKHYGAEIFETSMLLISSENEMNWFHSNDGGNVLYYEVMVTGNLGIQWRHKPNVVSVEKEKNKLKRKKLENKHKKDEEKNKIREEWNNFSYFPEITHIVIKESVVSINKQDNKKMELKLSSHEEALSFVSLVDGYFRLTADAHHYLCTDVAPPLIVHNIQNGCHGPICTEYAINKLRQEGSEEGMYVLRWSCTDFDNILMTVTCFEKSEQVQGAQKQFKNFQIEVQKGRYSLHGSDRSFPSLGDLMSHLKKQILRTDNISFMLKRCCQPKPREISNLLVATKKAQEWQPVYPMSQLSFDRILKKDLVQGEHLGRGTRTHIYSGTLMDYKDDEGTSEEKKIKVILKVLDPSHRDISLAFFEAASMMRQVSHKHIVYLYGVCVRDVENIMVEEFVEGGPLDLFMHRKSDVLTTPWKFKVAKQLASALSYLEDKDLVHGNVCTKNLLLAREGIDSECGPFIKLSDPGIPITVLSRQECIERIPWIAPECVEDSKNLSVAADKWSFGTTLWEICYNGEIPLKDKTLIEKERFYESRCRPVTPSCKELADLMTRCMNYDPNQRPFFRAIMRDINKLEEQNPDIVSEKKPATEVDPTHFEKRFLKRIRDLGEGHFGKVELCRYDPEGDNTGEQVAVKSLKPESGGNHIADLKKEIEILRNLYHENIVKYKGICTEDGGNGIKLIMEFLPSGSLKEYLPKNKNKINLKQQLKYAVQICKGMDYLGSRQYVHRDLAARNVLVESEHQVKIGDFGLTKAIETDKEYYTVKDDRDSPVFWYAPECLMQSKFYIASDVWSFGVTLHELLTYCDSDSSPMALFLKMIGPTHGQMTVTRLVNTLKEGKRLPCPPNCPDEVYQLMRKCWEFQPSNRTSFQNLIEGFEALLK
Procedure: as §1, §2, §3

JAK2, sequence (O60674 whole entry, species assumed): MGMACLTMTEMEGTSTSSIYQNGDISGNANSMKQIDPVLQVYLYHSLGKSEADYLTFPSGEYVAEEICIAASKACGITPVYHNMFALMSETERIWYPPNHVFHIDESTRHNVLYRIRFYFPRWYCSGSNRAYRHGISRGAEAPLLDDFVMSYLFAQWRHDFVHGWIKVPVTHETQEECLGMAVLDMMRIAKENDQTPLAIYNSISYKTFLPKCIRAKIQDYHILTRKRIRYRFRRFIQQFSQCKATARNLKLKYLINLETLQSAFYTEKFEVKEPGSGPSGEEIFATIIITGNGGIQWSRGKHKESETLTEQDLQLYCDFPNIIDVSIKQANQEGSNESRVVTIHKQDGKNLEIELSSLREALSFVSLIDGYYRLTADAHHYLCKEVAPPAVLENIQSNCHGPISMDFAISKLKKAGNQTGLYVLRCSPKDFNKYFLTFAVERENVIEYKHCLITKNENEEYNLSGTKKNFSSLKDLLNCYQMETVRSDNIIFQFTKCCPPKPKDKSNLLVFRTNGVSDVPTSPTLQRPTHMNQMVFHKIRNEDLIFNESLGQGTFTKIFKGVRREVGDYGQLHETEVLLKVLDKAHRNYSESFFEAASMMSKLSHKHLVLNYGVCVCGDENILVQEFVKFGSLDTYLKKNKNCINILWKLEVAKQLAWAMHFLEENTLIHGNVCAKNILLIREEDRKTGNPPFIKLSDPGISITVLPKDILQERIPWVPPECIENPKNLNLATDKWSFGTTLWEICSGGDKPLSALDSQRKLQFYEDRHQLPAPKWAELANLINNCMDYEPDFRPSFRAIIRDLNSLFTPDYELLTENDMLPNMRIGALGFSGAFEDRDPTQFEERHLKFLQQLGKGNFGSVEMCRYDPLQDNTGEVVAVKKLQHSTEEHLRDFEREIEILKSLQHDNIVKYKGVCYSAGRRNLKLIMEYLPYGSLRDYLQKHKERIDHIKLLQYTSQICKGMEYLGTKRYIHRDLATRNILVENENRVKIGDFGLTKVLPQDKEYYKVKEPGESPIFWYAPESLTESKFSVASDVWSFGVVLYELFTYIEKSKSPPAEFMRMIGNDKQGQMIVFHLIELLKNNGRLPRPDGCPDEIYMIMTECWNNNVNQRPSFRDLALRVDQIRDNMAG

`NC(=O)c1cnc(Nc2ccc3c(c2)OC[C@H]2CN(S(=O)(=O)C4CC4)CCN32)nc1NC1CC1` [Compound (I), (R)-4-(cyclopropylamino)-2-((3-(cyclopropylsulfonyl)-1,2,3,4,4a,5-hexahydrobenzo[b]pyrazolo[1,2-d][1,4]oxazin-8-yl)amino)pyrimidine-5-arboxamide] was tested. Which IC50 (JAK2) did it give?
Its IC50 is 3.92 nM.

What about the IC50 (JAK3) of the same compound?
Its IC50 is 1.43 nM.

What about the IC50 (TYK2) of the same compound?
The IC50 was 0.82 nM.

And the IC50 (SYK)?
Its IC50 is 7.25 nM.

What about the IC50 (JAK1) of the same compound?
Its IC50 is 20 nM.
